# What was measured:
# Claviceps [1] = experiment: Inhibition of DMAT synthase in Claviceps SD 58 assessed as conversion of 1-14C]dimethylallylpyrophosphate to dimethylallyltryptophan at 3 mM after 5 days; design: scale not given: the % may be the effect or the level left
# Claviceps [2] = experiment: Inhibition of alkaloid biosynthesis in Claviceps SD 58 protoplast assessed as incorporation of L-[methylene-14C] tryptophan at 4 mM relative to control; type: functional; design: scale not given: the % may be the effect or the level left
# Claviceps [3] = experiment: Inhibition of alkaloid biosynthesis in intact cells of Claviceps SD 58 assessed as incorporation of L-[methylene-14C] tryptophan at 3 mM after 24 hrs relative to control; type: functional
# Claviceps [4] = experiment: Inhibition of alkaloid biosynthesis in intact cells of Claviceps SD 58 assessed as incorporation of L-[methylene-14C] tryptophan at 3 mM; type: functional
compound,measurement,setting,value
CN1CC(CO)=C[C@@H]2c3cccc4[nH]cc(c34)C[C@H]21 [listing 1 of 3 here],Activity,Claviceps [1],70%
CN1CC(CO)=C[C@@H]2c3cccc4[nH]cc(c34)C[C@H]21 [listing 2 of 3 here],Activity,Claviceps [2],50%
same,fold change (FC),Claviceps [3],2
CC1=C[C@@H]2c3cccc4[nH]cc(c34)C[C@H]2N(C)C1,Activity,Claviceps [1],90%
CN1CC(CO)=C[C@@H]2c3cccc4[nH]cc(c34)C[C@H]21 [listing 3 of 3 here],inhibition at 3000 µM,Claviceps [4],29%
